Measurements published in ChEMBL document CHEMBL5465560, “Selectivity Literature for EUbOPEN Chemogenomic Library” (2024).
One block for each compound: values may come before it.

Assays:
[1] = molecular target: T1, Histone-lysine N-methyltransferase NSD3 (Homo sapiens) (UniProt Q9BZ95); conditions: at 1 µM
T1 sequence (whole entry): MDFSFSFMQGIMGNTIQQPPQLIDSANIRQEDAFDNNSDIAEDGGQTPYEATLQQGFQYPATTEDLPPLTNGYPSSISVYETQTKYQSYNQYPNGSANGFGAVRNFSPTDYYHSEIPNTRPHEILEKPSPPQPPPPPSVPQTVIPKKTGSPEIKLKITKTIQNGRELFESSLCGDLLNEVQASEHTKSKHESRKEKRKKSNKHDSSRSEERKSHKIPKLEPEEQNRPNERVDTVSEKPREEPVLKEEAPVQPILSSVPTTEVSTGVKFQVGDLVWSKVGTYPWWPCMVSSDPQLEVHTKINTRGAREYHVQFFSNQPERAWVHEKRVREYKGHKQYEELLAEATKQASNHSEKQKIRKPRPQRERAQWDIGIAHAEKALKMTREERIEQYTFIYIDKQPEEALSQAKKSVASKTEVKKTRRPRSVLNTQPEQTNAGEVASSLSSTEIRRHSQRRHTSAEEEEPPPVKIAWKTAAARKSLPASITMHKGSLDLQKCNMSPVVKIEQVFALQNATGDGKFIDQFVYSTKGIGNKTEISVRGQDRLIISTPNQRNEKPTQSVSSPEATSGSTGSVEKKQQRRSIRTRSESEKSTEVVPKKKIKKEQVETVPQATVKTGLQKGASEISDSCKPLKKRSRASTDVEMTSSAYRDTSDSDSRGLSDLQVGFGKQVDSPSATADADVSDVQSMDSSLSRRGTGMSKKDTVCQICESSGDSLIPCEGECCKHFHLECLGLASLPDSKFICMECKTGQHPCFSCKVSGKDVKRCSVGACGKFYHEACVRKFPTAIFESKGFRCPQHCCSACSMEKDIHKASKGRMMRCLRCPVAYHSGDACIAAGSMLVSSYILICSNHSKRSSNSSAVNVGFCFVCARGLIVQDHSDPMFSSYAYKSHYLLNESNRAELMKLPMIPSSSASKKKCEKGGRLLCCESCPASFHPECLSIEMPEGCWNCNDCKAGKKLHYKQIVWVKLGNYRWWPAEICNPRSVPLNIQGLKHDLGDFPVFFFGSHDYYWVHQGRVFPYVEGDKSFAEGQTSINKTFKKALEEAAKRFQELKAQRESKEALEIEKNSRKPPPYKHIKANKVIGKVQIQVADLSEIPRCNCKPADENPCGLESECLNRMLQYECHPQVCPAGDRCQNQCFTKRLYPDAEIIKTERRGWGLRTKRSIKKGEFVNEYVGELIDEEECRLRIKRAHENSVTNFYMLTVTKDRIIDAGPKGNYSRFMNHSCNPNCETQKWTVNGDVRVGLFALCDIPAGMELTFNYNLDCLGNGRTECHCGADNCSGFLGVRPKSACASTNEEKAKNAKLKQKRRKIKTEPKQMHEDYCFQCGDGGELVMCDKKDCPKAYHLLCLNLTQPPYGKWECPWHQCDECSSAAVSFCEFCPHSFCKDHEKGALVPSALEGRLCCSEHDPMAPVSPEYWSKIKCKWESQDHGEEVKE

[2] = molecular target: Serine/threonine-protein kinase B-raf (Homo sapiens) (UniProt P15056); experiment: Selectivity interaction (Kinase panel (DSF assay)) EUB0001559a BRAF
Sequence of Serine/threonine-protein kinase B-raf (Homo sapiens) (P15056 whole entry): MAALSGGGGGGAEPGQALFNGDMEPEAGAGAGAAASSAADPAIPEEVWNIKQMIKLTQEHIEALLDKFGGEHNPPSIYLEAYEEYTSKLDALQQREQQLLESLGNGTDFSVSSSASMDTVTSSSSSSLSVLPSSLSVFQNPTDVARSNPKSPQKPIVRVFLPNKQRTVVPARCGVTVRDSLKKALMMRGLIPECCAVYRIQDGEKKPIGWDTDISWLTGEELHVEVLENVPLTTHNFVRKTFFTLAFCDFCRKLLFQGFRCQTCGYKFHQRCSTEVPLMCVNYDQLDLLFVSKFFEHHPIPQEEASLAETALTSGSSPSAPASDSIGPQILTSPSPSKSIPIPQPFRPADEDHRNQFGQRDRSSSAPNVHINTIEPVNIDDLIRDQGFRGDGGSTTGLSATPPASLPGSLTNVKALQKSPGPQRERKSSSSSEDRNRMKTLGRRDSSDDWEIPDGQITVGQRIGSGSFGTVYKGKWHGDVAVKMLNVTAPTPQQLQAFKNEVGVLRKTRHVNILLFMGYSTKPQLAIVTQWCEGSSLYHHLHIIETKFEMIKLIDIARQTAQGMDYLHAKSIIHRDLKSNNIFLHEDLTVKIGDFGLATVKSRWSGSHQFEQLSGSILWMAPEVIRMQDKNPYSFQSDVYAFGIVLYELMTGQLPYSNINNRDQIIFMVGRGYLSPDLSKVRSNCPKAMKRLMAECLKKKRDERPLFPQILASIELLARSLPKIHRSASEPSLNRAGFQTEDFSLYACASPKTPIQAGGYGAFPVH

[3] = molecular target: Serine/threonine-protein kinase 16 (Homo sapiens, UniProt O75716); experiment: Selectivity interaction (KinomeScan (DiscoverX)) EUB0000695a STK16; conditions: at 100 nM
Sequence of Serine/threonine-protein kinase 16 (O75716 whole entry): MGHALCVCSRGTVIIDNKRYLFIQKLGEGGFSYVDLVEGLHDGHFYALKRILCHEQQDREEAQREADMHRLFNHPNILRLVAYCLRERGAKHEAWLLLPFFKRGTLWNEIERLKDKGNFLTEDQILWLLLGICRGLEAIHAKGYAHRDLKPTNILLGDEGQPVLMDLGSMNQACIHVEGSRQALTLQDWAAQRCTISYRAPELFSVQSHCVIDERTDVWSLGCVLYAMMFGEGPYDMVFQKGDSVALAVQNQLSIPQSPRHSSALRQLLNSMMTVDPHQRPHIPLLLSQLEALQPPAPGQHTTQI

[4] = molecular target: Protein-tyrosine kinase 2-beta (Homo sapiens) (UniProt Q14289); experiment: Selectivity interaction (KinomeScan (DiscoverX)) EUB0001079a PTK2B; conditions: at 1 µM
Sequence of Protein-tyrosine kinase 2-beta (Homo sapiens) (Q14289 whole entry, looked up): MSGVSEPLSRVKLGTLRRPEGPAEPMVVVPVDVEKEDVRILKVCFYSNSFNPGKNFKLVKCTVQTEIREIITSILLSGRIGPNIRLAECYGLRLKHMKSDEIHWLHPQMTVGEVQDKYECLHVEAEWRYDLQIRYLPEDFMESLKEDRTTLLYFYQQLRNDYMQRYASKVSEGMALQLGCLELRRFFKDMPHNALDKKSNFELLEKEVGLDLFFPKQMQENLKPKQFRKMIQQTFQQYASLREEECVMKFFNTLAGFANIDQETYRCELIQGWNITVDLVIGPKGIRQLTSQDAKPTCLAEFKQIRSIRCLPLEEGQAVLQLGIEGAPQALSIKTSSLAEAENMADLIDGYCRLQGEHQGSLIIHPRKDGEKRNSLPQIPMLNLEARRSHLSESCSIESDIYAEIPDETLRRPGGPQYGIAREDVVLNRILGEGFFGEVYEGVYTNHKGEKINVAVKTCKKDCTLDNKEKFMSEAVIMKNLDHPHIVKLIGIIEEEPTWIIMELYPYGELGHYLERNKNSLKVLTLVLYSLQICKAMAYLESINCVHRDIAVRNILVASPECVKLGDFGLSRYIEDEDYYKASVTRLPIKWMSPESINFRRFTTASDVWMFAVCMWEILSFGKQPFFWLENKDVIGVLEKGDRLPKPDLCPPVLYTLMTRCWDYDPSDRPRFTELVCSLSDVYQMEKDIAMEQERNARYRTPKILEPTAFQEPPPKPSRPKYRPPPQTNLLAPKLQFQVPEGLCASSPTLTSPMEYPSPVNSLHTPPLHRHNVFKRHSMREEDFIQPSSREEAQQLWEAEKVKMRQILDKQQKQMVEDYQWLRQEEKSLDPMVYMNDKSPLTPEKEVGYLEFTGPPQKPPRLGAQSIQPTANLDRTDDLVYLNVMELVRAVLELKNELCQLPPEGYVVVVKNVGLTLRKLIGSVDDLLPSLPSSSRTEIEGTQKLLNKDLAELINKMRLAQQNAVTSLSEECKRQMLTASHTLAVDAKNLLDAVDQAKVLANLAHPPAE

[5] = molecular target: DNA (cytosine-5)-methyltransferase 3A (Homo sapiens) (UniProt Q9Y6K1); experiment: Selectivity interaction (Transferase panel (protein, RNA, and DNA methyltransferases. and EP300 (acetyltransferase))) EUB0000270b DNMT3A
Sequence of DNA (cytosine-5)-methyltransferase 3A (Homo sapiens) (Q9Y6K1 whole entry, looked up): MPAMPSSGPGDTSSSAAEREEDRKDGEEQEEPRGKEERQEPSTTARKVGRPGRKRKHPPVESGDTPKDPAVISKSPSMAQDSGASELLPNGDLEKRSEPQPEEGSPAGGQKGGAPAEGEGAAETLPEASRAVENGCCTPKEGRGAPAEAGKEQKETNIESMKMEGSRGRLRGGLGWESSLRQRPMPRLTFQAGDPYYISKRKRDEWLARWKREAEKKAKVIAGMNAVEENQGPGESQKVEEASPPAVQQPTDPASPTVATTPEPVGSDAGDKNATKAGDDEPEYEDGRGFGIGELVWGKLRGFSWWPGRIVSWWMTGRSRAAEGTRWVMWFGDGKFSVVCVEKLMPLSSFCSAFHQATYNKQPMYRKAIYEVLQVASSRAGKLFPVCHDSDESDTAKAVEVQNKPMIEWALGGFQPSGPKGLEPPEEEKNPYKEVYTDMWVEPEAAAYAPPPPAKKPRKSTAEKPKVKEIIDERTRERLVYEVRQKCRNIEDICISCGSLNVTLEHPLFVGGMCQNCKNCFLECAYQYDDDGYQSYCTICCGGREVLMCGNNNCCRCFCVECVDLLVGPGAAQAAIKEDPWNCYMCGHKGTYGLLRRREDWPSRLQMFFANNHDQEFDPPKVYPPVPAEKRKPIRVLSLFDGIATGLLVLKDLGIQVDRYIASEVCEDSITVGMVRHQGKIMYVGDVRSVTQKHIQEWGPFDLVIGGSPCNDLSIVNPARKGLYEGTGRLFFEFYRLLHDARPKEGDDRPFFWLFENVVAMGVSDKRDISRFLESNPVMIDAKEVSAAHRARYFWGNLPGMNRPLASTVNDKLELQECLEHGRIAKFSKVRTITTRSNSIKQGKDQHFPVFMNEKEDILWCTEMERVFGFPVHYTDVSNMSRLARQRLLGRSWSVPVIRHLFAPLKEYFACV

[6] = molecular target: 3',5'-cyclic-AMP phosphodiesterase 4D (Homo sapiens) (UniProt Q08499); experiment: Selectivity interaction (Panel of non-epigenetic targets (kinases, GPCRs, ion channels, and transporters, Eurofins) ) EUB0000271b PDE4D; conditions: at 1 µM
Sequence of 3',5'-cyclic-AMP phosphodiesterase 4D (Homo sapiens) (Q08499 whole entry): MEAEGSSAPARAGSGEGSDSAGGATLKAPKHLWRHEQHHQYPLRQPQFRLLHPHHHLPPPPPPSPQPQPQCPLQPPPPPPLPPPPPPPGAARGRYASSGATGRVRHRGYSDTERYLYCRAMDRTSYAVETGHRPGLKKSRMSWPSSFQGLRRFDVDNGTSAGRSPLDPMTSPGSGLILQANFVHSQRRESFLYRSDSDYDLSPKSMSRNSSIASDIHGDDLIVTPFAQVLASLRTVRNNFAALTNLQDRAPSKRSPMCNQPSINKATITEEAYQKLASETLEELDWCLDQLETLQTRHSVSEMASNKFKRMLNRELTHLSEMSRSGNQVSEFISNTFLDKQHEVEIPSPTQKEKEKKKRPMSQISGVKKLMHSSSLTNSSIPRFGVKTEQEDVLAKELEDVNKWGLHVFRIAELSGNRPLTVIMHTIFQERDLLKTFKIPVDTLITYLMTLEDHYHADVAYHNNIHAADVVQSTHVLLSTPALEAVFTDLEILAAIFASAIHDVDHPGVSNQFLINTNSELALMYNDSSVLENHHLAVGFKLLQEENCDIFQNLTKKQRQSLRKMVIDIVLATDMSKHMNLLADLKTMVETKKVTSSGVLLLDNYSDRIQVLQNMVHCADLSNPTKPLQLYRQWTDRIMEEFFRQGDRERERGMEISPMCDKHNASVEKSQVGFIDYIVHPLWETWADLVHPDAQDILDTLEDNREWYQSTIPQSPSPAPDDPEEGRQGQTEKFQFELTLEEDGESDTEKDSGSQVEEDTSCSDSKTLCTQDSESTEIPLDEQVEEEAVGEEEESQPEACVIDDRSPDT

[7] = molecular target: Mitogen-activated protein kinase kinase kinase kinase 1 (Homo sapiens) (UniProt Q92918); experiment: Selectivity interaction (KinomeScan (DiscoverX)) EUB0001619a MAP4K1; conditions: at 1 µM
[8] = molecular target: MAP kinase-interacting serine/threonine-protein kinase 2 (Homo sapiens, UniProt Q9HBH9); experiment: Selectivity interaction (Kinase panel (Invitrogen)) EUB0000639a MKNK2; conditions: at 200 nM
Sequence of MAP kinase-interacting serine/threonine-protein kinase 2 (Q9HBH9 whole entry, looked up): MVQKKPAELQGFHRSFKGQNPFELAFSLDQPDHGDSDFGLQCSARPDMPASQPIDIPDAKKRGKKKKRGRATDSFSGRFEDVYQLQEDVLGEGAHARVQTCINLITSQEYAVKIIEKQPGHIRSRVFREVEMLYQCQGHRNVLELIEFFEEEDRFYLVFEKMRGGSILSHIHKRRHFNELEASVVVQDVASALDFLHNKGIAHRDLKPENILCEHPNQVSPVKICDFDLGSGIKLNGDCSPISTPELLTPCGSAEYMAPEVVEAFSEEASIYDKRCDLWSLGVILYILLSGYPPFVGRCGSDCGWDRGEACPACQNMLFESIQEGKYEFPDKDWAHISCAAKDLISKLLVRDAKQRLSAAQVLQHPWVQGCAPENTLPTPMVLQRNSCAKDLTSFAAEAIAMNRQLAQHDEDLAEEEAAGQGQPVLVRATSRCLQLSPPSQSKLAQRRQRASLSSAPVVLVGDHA

[9] = molecular target: T2, Phosphatidylinositol 5-phosphate 4-kinase type-2 alpha (Homo sapiens) (UniProt P48426); experiment: Selectivity interaction (ActivX KiNativ screen (kinase selectivity in THP-1 cell lysates)) EUB0000639a PIP4K2A; format: subcellular; conditions: lysate
T2 sequence (whole entry): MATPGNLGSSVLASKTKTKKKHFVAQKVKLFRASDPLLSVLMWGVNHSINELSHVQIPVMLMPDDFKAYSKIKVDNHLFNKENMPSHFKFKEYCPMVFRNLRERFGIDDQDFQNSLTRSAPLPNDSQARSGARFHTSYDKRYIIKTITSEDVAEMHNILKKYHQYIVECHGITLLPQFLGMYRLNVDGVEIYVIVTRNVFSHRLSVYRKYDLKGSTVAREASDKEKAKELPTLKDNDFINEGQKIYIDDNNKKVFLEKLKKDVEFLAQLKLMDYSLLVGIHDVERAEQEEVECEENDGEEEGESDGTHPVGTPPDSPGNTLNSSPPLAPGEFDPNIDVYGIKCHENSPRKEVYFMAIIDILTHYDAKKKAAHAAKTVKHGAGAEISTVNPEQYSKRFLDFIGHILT

Aurora kinase B = Aurora kinase B (Homo sapiens, UniProt Q96GD4); conditions: at 10 µM
Sequence of Aurora kinase B (Q96GD4 whole entry): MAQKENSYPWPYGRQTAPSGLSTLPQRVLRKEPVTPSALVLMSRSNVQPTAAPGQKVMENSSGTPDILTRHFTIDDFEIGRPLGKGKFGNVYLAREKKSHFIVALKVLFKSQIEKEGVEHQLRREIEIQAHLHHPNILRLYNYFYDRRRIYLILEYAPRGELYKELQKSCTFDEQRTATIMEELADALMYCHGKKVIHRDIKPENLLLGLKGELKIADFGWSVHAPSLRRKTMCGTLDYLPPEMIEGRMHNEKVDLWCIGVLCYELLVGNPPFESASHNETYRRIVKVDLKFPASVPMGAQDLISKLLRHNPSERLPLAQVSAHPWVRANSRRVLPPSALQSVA

SMILES: Cc1cc(F)c(C(=O)Nc2cccc(-c3nncn3C(C)C)n2)cc1-n1cnc(C2CC2)c1
% of control [3]: 83%

SMILES: Nc1cnc(N2CCc3cc(S(=O)(=O)Nc4c(F)cc(Cl)cc4F)cc(N4CCCC4=O)c32)nc1 [TP-020n]
% of control [4]: 100%

SMILES: Cc1cc(CN)cc(C)c1-c1ncn(C)c1-c1cncn1C
% activity ([5]; at 1 µM): > 90%
% activity ([5]; at 10 µM): > 80%

SMILES: Cc1cc(C)cc([C@@H]2c3cc(C)ccc3NC(=O)CN2C(=O)c2ccc(Br)s2)c1
% of inhibition [6]: -12%

SMILES: N#Cc1cccc(-c2c[nH]c3ncnc(N4CCOCC4)c23)c1
% of control [7]: 79%

SMILES: CCN(CC)CCCCNc1ncc2cc(-c3cc(OC)cc(OC)c3)c(NC(=O)NC(C)(C)C)nc2n1
% of control (Aurora kinase B): 100%

More lines, now with the values ahead:

% activity [1]: > 90%
SMILES: CNCCN1CCC(c2cc(CN(C)C(=O)c3cccc(Oc4ccccc4)c3)ccn2)CC1

dTM [2]: 1.7 K
SMILES: CN(C(=O)c1cnn2cccnc12)c1cc2c(cc1N1CCOCC1)C(=O)N(C[C@@H](F)C(C)(C)O)C2

% of inhibition [8]: 86%
% of inhibition ([9]; at 0.01 µM): -3.1%
% of inhibition ([9]; at 0.04 µM): 1.9%
% of inhibition ([9]; at 0.2 µM): -7.7%
% of inhibition ([9]; at 1 µM): -0.6%
% of inhibition ([9]; at 5 µM): -9%
SMILES: CC[C@@H]1[C@H](F)C(=O)N[C@@H]1COc1nccc2cc(C(N)=O)c(OC)cc12 [ZIMLOVISERTIB]
